Data on five compounds can be found in patent publication US20150065440A1 (Progen Pharmaceuticals Limited, priority 2007, published 2015).

For one assay, the target named is FGF-1 (Homo sapiens, UniProt P05230). The assay can be described thus: Growth factor binding assay (SPR solution affinity), FGF-1. The method, then:
(§1) Binding affinities of compounds for the growth factors FGF-1, FGF-2 and VEGF were measured using a surface plasmon resonance (SPR) based solution affinity assay.^9 Heparin-coated sensorchips used for this assay were prepared via immobilisation of biotinylated BSA-heparin on a streptavidin-coated sensorchip, or via aldehyde coupling using either adipic acid dihydrazide or 1,4-diaminobutane.^9 For each Kd measurement, solutions were prepared containing a fixed concentration of protein and varying concentrations of the ligand in buffer. Ligands binding to FGF-1 and VEGF were measured in HBS-EP buffer (10 mM HEPES, pH 7.4, 150 mM NaCl, 3.0 mM EDTA and 0.005% (v/v) polysorbate 20), while binding to FGF-2 was measured in HBS-EP buffer containing 0.3 M NaCl. Prior to injection, samples were maintained at 4° C. to maximise protein stability. For each assay mixture, 50-200 μL of solution was injected at 5-40 μL/min and the relative binding response measured. All surface binding experiments were performed at 25° C. The surface was regenerated by injection of 40 μL of 4M NaCl at 40 μL/min, followed by injection of 40 μL of buffer at 40 μL/min.
(§2) Sensorgram data were analysed using the BIAevaluation software (BIAcore) and Kd values determined as previously described.^9 Where Kd values were measured in duplicate, the values represent the average of the duplicate measurements.

In assay [1] the test system is pooled normal human plasma. The assay can be described thus: Anticoagulant activity, APTT. The following applies: 0.1 mg/mL in normal pooled human plasma. The protocol:
APTT measurements were performed on a STAGO STA-Compact Coagulation Analyser using standard protocols according to the manufacturer's instructions. Unfractionated heparin (UFH) was used as a control.

The subject of assay [2] is normal pooled human plasma. As to the kind of experiment: Anticoagulant activity, Heptest. The following applies: 0.1 mg/mL in normal pooled human plasma.
The target of another assay is T1, VEGF (Homo sapiens, UniProt P15692).
T1 sequence (P15692 207-395): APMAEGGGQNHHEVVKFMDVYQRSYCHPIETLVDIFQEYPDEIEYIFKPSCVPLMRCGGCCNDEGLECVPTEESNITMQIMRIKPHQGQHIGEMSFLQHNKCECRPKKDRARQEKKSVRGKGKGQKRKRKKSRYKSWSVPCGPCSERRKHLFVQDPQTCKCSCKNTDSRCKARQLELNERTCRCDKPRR
The assay can be described thus: Growth factor binding assay (SPR solution affinity), VEGF. The following applies: HBS-EP buffer, 25° C. The protocol:
as §1, §2

For the next assay, the system named is RSV. The assay can be described thus: Viral plaque number-reduction assay, RSV. The following applies: human respiratory syncytial virus, read-out: RSV IC50. The method, then:
(§3) African green monkey kidney (GMK AH1) cells^46 were cultured in Eagle's minimum essential medium (EMEM) supplemented with 2% calf serum, 0.05% Primaton RL substance (Kraft Inc., Norwich, USA) and antibiotics. Human epidermoid carcinoma (HEp-2) cells were cultured in Dulbecco's modified EMEM (DMEM) supplemented with 10% fetal calf serum and antibiotics. […] The RSV strain A-2^50 was used. The RSV stock was prepared as described by Hallak et al.^51 and stored at −70° C. in the presence of 40% sucrose^52.
(§4) The viral infectivity (the plaque number-reduction) assay and the plaque size-reduction assay were carried out as described previously^17. […] Subsequently, the cells were washed with 2 mL of EMEM and overlaid with 1% methylcellulose solution in EMEM. The plaques were visualized by staining with crystal violet solution after 2 (HSV-2) or 3 (HSV-1) days of incubation at 37° C. […] When the compounds were screened for anti-HSV or anti-RSV activity, mixtures of 200 PFU of the virus and the test compound (100 μg/mL) in serum-free EMEM were incubated for 10 min at room temperature before addition to cells and during the entire period of viral infection of cells and the development of viral plaques. In the plaque size-reduction assay, the compounds were added to cells (in methylcellulose overlay medium) after 2 h period of virus infection of cells in the absence of the inhibitor. After 2-3 days of incubation at 37° C., the viral plaques were visualized by staining the cells with 1% solution of crystal violet. For each compound tested, the images of twenty neighboring plaques were captured using a Leica DC300 digital camera attached to a Leitz-Wetzlar Diavert microscope. The area of each plaque was determined using IM500 image software (Leica). Similar protocols were used for RSV, except that the assays were performed in HEp-2 cells and DMEM supplemented with 2% heat-inactivated fetal calf serum was used instead of EMEM.

Assay [3] has as its system HUVEC proliferation induced by VEGF. As to the kind of experiment: Growth factor induced endothelial cell proliferation assay, VEGF. The format is cell-based, human. The following applies: Homo sapiens, HUVEC, 72 h; read-out: VEGF (IC50) inhibition of HUVEC proliferation. An excerpt: (§5) HUVEC cells were maintained and subcultured according to standard cell culture protocols essentially as described by Lonza. Briefly, cells were maintained in Lonza endothelial growth media (EGM) with recommended supplements and growth factors (VEGF, FGF2, EFG, IGF, hydrocortisone, fetal bovine serum (FBS), ascorbic acid, heparin and gentamicin). Cells were subcultured when they reached 70-80% confluence by trypsinisation and reseeding in fresh growth medium in new culture vessels at 2500 to 5000 cells/cm^2 of vessel surface area. Cell counts were performed using a haemocytometer and viable cells were visualized with trypan blue.
(§6) Medium for the proliferation studies was prepared using EGM with 2% FBS and gentamicin only. In a later study, complete EGM was used for the VEGF groups in an attempt to enhance the proliferative index of VEGF-stimulated groups. For the tube formation assay, complete medium was used with only heparin omitted. Compounds under investigation were weighed out from powder stocks and diluted in PBS to 10 mM stock solutions and stored at −80° C. For experiments, compounds were subsequently diluted in EBM-2 medium (supplemented with 2% FBS and gentamicin) to various working concentration as required.
(§7) In the first of a series of experiments, the assay was further optimized by examining the cell density and growth factor concentration required to induce maximal proliferation by growth factors. Briefly, 100 μL of cells was added to each well at concentrations between 1-3×10^3 per well. Growth factors and test compounds were then added in 50 μL volumes at specified concentrations to obtain a final volume of 200 μL. Following incubation for 70 h, 20 μL of the CellTitre 96® Aqueous One Solution Cell Proliferation Assay (Promega) was added for 2 h prior to reading the absorbance at 490 nm to obtain OD values.

For assay [4], the target named is T2, recombinant human heparanase (Homo sapiens, UniProt Q9Y251).
T2 sequence (Q9Y251 158-543 limits assumed): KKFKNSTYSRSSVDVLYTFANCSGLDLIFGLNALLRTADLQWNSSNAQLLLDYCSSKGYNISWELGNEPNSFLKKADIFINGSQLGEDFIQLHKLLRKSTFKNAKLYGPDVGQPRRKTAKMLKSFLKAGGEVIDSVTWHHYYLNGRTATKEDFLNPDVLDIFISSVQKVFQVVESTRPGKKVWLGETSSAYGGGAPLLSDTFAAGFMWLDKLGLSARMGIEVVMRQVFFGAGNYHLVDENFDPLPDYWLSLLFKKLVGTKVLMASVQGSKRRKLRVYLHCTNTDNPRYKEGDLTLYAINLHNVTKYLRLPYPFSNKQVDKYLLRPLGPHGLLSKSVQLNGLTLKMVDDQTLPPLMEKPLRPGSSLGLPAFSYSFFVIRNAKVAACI
T2 sequence (Q9Y251 36-109 limits assumed): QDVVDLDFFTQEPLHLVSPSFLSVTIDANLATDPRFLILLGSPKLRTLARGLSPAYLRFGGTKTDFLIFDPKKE
The assay can be described thus: Heparanase inhibition assay (fondaparinux cleavage, WST-1). A general note: Tetrazolium assays rely on reduction of a dye to a coloured formazan, in cell work by metabolically active cells.

The next assay relates to HSV-2. The assay can be described thus: Viral plaque number-reduction assay, HSV-2. The following applies: Human alphaherpesvirus 2, read-out: HSV-2 IC50. The protocol: as §3, §4
Assay [5] relates to HUVEC proliferation induced by FGF-2. As to the kind of experiment: Growth factor induced endothelial cell proliferation assay, FGF-2. It is filed as cell-based, human. The following applies: Homo sapiens, HUVEC, 72 h; read-out: FGF-2 (IC50) inhibition of HUVEC proliferation.
Source text: as §5, §6, §7

For assay [6], the system named is HUVEC proliferation induced by FGF-1. As to the kind of experiment: Growth factor induced endothelial cell proliferation assay, FGF-1. The format is cell-based, human. The following applies: Homo sapiens, HUVEC, 72 h; read-out: FGF-1 (IC50) inhibition of HUVEC proliferation.
Source text: as §5, §6, §7

The next assay has as its target FGF-2 (Homo sapiens, UniProt P09038). As to the kind of experiment: Growth factor binding assay (SPR solution affinity), FGF-2. The method, then:
as §1, §2

Setting [7] is: SPR, HBS-EP buffer, 25° C., read-out: Kd FGF-1.
Where [8] appears, read: SPR, HBS-EP buffer containing 0.3 M NaCl, 25° C., read-out: Kd FGF-2.

Where a name gives a salt, the structure may show the parent alone. Read-outs that look alike come from different tables or passages of the source.

For orientation: Kd means the free concentration of one partner at which half of the binding sites on the other are occupied at equilibrium, for simple one-to-one binding. The Ki is the equilibrium dissociation constant of an inhibitor or competing ligand from its target.

FGF-1, sequence (P05230 whole entry, species assumed): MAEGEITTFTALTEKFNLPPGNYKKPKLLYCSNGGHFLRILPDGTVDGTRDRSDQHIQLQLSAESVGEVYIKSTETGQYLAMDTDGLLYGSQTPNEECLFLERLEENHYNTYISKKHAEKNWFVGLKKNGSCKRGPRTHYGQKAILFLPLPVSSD
FGF-2, sequence (P09038 143-288, species assumed): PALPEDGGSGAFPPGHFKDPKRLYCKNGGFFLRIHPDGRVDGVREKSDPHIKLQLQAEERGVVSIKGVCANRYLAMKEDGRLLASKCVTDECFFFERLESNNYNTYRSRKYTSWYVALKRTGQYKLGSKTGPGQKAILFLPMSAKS

`CC(C)CCC[C@@H](C)[C@H]1CC[C@H]2[C@@H]3CC[C@H]4C[C@@H](O[C@H]5O[C@H](COS(=O)(=O)O)[C@@H](OS(=O)(=O)O)[C@H](OS(=O)(=O)O)[C@@H]5OS(=O)(=O)O)CC[C@]4(C)[C@H]3CC[C@]12C` [Compound 79, 3β-Cholestanyl 2,3,4,6-tetra-O-sulfonato-α-D-mannopyranoside tetrasodium salt]: the Kd on FGF-1 (setting [7]) was 3600 ± 600 nM; on VEGF, 3000 ± 400 nM. This compound had an APTT in [1] of 36.1 s. The Heptest in assay [2] is on record as 23.9 s. For the same compound, the IC50 is 2.9 µg/mL with RSV; 2240 nM in assay [3]; 0.28 µg/mL with HSV-2; 2900 nM in assay [5]; 2200 nM in [6]. The Ki in assay [4] (read-out: Ki Heparanase, IC50 converted into Ki, fondaparinux 100 μM, pH 5.0) came to 111 ± 28 nM.

Consider `CC(C)CCCC(C)C1CCC2C3CCC4CC(OCc5cn(C6OC(COS(=O)(=O)O)C(OC7OC(COS(=O)(=O)O)C(OS(=O)(=O)O)C(OS(=O)(=O)O)C7OS(=O)(=O)O)C(OS(=O)(=O)O)C6OS(=O)(=O)O)nn5)CCC4(C)C3CCC12C` [Compound 93, 4-(Cholestan-3β-yl-oxymethyl) [1,2,3]triazol-1-yl 2,3,4,6-tetra-O-sulfo-β-D-galactopyranosyl-(1→4)-2,3,6-tri-O-sulfo-β-D-glucopyranoside, heptasodium salt], for which the equilibrium dissociation constant (Kd) on FGF-1 came to 610 ± 210 nM; at VEGF it was 1600 ± 300 nM; on FGF-2 it was 1800 ± 300 nM. Further, in assay [1], the APTT stood at 39.6 s. The compound also returned a Heptest in assay [2] of 25.3 s. Also, the IC50 is 0.4 µg/mL in the assay on RSV; 2620 nM in assay [3]; 0.27 µg/mL in the assay with HSV-2; 2430 nM in [5]; 2690 nM in [6]. For the same compound, in assay [4], the Ki is 30 ± 7 nM.

As to `CC(C)CCC[C@@H](C)[C@H]1CC[C@H]2[C@@H]3CC[C@H]4C[C@@H](OCc5cn([C@@H]6O[C@H](COS(=O)(=O)O)[C@@H](O[C@H]7O[C@H](COS(=O)(=O)O)[C@@H](OS(=O)(=O)O)[C@H](OS(=O)(=O)O)[C@H]7OS(=O)(=O)O)[C@H](OS(=O)(=O)O)[C@H]6OS(=O)(=O)O)nn5)CC[C@]4(C)[C@H]3CC[C@]12C` [Compound 97, 4-(Cholestan-3β-yl-oxymethyl) [1,2,3]triazol-1-yl 2,3,4,6-tetra-O-sulfo-α-D-glucopyranosyl-(1→4)-2,3,6-tri-O-sulfo-β-D-glucopyranoside, heptasodium salt], the Kd was determined as 840 ± 130 nM on FGF-1 (setting [7]), 1930 ± 230 nM on VEGF and 3400 ± 300 nM on FGF-2 (setting [8]). The APTT in assay [1] is 40.3 s. The compound also displayed a Heptest in assay [2] of 26.7 s. The IC50 in the assay with RSV stood at 0.58 µg/mL; in assay [3] it was 1130 nM; with HSV-2 it was 0.26 µg/mL; in assay [5], 4170 nM; in assay [6], 4090 nM.

Consider `CC(C)CCCC(C)C1CCC2C3CCC4CC(OC5OC(COS(=O)(=O)O)C(OC6OC(COS(=O)(=O)O)C(OS(=O)(=O)O)C(OS(=O)(=O)O)C6OS(=O)(=O)O)C(OS(=O)(=O)O)C5OS(=O)(=O)O)CCC4(C)C3CCC12C` [Compound 102, 3′-Cholestanyl 2,3,4,6-tetra-O-sulfo-α-D-glucopyranosyl-(1→4)-2,3,6-tri-O-sulfo-β-D-glucopyranoside, heptasodium salt], for which the Kd at FGF-1 came out at 560 ± 30 nM; at VEGF it was 1200 ± 400 nM; at FGF-2 (setting [8]) it was 2200 ± 400 nM. Moreover, in assay [1], the APTT is recorded as 38.6 s. In assay [2], the Heptest was 23.9 s. In addition, the IC50 in the assay on RSV is 1.8 µg/mL; in assay [3], 5170 nM; with HSV-2, 0.43 µg/mL; in [5], greater than 10000 nM; in assay [6], 3950 nM.

On to `CC(C)CCC[C@@H](C)[C@H]1CC[C@H]2[C@@H]3CCC4CC(O[C@@H]5O[C@H](COS(=O)(=O)O)[C@@H](O[C@@H]6O[C@H](COS(=O)(=O)O)[C@@H](OS(=O)(=O)O)[C@H](OS(=O)(=O)O)[C@H]6OS(=O)(=O)O)[C@H](OS(=O)(=O)O)[C@H]5OS(=O)(=O)O)CC[C@]4(C)[C@H]3CC[C@]12C` (stereo partly drawn) [Compound 107, 3′-Cholestanyl 2,3,4,6-tetra-O-sulfo-β-D-glucopyranosyl-(1→4)-2,3,6-tri-O-sulfo-β-D-glucopyranoside, heptasodium salt], for which the APTT in assay [1] was 38.8 s. Moreover, the Heptest in [2] is on record as 25.3 s. Further, the Kd at VEGF came out at 1350 ± 70 nM. Further, the IC50 in the assay on RSV came out at 1.9 µg/mL; in assay [3] it was 5560 nM; with HSV-2, 0.43 µg/mL; in [5], 5590 nM; in assay [6] it was 5750 nM.
